Source: patent publication US20250215029A1 (Recludix Pharma, Inc., priority 2022, published 2025)
pIC50: −log10 of the molar value.

Tests used:
[1] = target: T1, Recombinant STAT3 protein (STAT3 (G127-I722)) (Homo sapiens, UniProt P40763); assay: STAT3 Fluorescence Polarization (FP) Assay; type: binding; details: STAT3 (G127-I722) 25 nM, probe 5-FAM-GpYLPQTV-NH2 2 nM, 45-minute incubation; read-out: STAT3 (FP assay IC50 class)
T1 construct: Recombinant STAT3 protein (STAT3 (G127-I722))
How it was run: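 Compounds in serial dilution receive a premix of STAT3 (G127-I722, 25 nM) and fluorescent phosphotyrosine peptide 5-FAM-GpYLPQTV-NH2 (2 nM) at pH 7.4. After 45 min at room temperature, FP is measured and IC50 derived by nonlinear regression.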

[2] = target: T2, Recombinant STAT6 protein (STAT6 (W123-T658)) (Homo sapiens, UniProt P42226); assay: STAT6 Fluorescence Polarization (FP) Assay; type: binding; details: STAT6 (W123-T658) 250 nM, probe 5-FAM-Ap[…]-NH2 2 nM, 45-minute incubation; read-out: STAT6 (FP assay IC50 class)
T2 construct: Recombinant STAT6 protein (STAT6 (W123-T658))
T2 sequence (P42226 123-658): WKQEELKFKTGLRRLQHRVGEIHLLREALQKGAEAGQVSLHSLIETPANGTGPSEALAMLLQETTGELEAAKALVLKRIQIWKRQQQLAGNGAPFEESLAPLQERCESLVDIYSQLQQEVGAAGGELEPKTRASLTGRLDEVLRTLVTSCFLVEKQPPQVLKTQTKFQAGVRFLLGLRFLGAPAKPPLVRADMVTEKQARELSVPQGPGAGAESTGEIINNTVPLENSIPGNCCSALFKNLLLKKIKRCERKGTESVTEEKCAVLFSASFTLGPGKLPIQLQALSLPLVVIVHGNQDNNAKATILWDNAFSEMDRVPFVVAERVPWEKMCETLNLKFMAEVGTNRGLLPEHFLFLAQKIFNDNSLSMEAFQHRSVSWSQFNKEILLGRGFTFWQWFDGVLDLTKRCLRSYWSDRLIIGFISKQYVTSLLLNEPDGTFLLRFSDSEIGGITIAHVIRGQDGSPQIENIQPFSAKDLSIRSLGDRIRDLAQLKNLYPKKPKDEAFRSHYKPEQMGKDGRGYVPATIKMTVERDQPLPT
How it was run: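 Protein-probe mix (250 nM STAT6 W123-T658, 2 nM 5-FAM-pTyr peptide) in 10 mM HEPES pH 7.4, 50 mM NaCl, 1 mM EDTA, 0.05% Tween 20, 2 mM DTT; added to compound dilution series, 1% DMSO final; 45 min RT; FP read; IC50 via nonlinear regression.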

T1 sequence (P40763 127-722): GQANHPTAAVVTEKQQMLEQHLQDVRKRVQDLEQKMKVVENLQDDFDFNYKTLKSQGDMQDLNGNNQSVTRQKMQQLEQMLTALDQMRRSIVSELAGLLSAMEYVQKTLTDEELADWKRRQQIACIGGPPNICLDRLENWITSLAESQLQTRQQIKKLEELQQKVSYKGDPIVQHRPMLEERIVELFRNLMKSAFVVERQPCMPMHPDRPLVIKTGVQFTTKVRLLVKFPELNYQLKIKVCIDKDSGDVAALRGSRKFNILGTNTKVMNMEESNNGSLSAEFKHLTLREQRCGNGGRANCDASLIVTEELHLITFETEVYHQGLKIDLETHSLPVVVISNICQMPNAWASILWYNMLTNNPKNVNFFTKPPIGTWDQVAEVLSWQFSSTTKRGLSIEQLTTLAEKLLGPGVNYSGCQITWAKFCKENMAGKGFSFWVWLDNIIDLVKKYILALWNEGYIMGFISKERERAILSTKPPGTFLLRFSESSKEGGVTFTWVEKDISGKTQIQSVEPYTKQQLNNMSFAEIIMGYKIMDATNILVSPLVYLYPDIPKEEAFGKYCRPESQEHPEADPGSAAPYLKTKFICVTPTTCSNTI

pIC50 [1]	pIC50 [2]	SMILES
5.00 to 6.00	4.52 to 5.52	O=C(N[C@H]1CCCC[C@H]2CC[C@@H](C(=O)N3CCC(c4cc[nH]n4)CC3)N2C1=O)c1cc2cc(C(F)P(=O)(O)O)ccc2s1 (stereo partly drawn) [Compound 589, ((2-(((3S,6S,10aS)-3-(4-(1H-pyrazol-3-yl)piperidine-1-carbonyl)-5-oxodecahydropyrrolo[1,2-a]azocin-6-yl)carbamoyl)benzo[b]thiophen-5-yl)fluoromethyl)phosphonic acid]
5.00 to 6.00	4.52 to 5.52	O=C(N[C@H]1CCCC[C@H]2CC[C@@H](C(=O)N3CCC(c4ccncn4)CC3)N2C1=O)c1cc2cc(C(F)P(=O)(O)O)ccc2s1 (stereo partly drawn) [Compound 590, (fluoro(2-(((3S,6S,10aS)-5-oxo-3-(4-(pyrimidin-4-yl)piperidine-1-carbonyl)decahydropyrrolo[1,2-a]azocin-6-yl)carbamoyl)benzo[b]thiophen-5-yl)methyl)phosphonic acid]
5.00 to 6.00	4.52 to 5.52	O=C(N[C@H]1CCC[C@H]2CC[C@@H](C(=O)N3CCC(c4n[nH]cc4F)CC3)N2C1=O)c1cc2cc(C(F)P(=O)(O)O)ccc2s1 (stereo partly drawn) [Compound 591, (fluoro(2-(((3S,6S,9aS)-3-(4-(4-fluoro-1H-pyrazol-3-yl)piperidine-1-carbonyl)-5-oxooctahydro-1H-pyrrolo[1,2-a]azepin-6-yl)carbamoyl)benzo[b]thiophen-5-yl)methyl)phosphonic acid]
6.00 to 7.00	4.52 to 5.52	O=C(N[C@H]1CCC[C@H]2CC[C@@H](C(=O)N3CC(c4cc(F)ccc4F)C3)N2C1=O)c1cc2cc(C(F)P(=O)(O)O)ccc2s1 (stereo partly drawn) [Compound 592, ((2-(((3S,6S,9aS)-3-(3-(2,5-difluorophenyl)azetidine-1-carbonyl)-5-oxooctahydro-1H-pyrrolo[1,2-a]azepin-6-yl)carbamoyl)benzo[b]thiophen-5-yl)fluoromethyl)phosphonic acid]
5.00 to 6.00	4.52 to 5.52	COc1cc(C(F)F)ncc1C1CN(C(=O)[C@@H]2CC[C@@H]3CCC[C@H](NC(=O)c4cc5cc(CP(=O)(O)O)ccc5s4)C(=O)N32)C1 [Compound 593, ((2-(((3S,6S,9aS)-3-(3-(6-(difluoromethyl)-4-methoxypyridin-3-yl)azetidine-1-carbonyl)-5-oxooctahydro-1H-pyrrolo[1,2-a]azepin-6-yl)carbamoyl)benzo [b]thiophen-5-yl)methyl) phosphonic acid]
5.00 to 6.00	4.52 to 5.52	COc1ccnc(C(F)F)c1C1CN(C(=O)[C@@H]2CC[C@@H]3CCC[C@H](NC(=O)c4cc5cc(CP(=O)(O)O)ccc5s4)C(=O)N32)C1 [Compound 594, ((2-(((3S,6S,9aS)-3-(3-(2-(difluoromethyl)-4-methoxypyridin-3-yl)azetidine-1-carbonyl)-5-oxooctahydro-1H-pyrrolo[1,2-a]azepin-6-yl)carbamoyl)benzo [b]thiophen-5-yl)methyl) phosphonic acid]
6.00 to 7.00	4.52 to 5.52	O=C(N[C@H]1CCC[C@H]2CC[C@@H](C(=O)N3CC(c4n[nH]cc4F)C3)N2C1=O)c1cc2cc(C(F)P(=O)(O)O)ccc2s1 (stereo partly drawn) [Compound 595, (fluoro(2-(((3S,6S,9aS)-3-(3-(4-fluoro-1H-pyrazol-3-yl)azetidine-1-carbonyl)-5-oxooctahydro-1H-pyrrolo[1,2-a]azepin-6-yl)carbamoyl)benzo [b]thiophen-5-yl)methyl) phosphonic acid]
6.00 to 7.00	4.52 to 5.52	O=C(N[C@H]1CCC[C@H]2CC[C@@H](C(=O)N3CC(c4cncc(F)c4)C3)N2C1=O)c1cc2cc(C(F)P(=O)(O)O)ccc2s1 (stereo partly drawn) [Compound 596, (fluoro(2-(((3S,6S,9aS)-3-(3-(5-fluoropyridin-3-yl)azetidine-1-carbonyl)-5-oxooctahydro-1H-pyrrolo[1,2-a]azepin-6-yl)carbamoyl)benzo [b]thiophen-5-yl)methyl) phosphonic acid]
> 7.00	4.52 to 5.52	CCOc1ccncc1C1CN(C(=O)[C@@H]2CC[C@@H]3CCC[C@H](NC(=O)c4cc5cc(C(F)P(=O)(O)O)ccc5s4)C(=O)N32)C1 (stereo partly drawn) [Compound 597, ((2-(((3S,6S,9aS)-3-(3-(4-ethoxypyridin-3-yl)azetidine-1-carbonyl)-5-oxooctahydro-1H-pyrrolo[1,2-a]azepin-6-yl)carbamoyl)benzo [b]thiophen-5-yl)fluoromethyl) phosphonic acid]
> 7.00	4.52 to 5.52	O=C(N[C@H]1CCC[C@H]2CC[C@@H](C(=O)N3CC(c4cnccc4OC4COC4)C3)N2C1=O)c1cc2cc(C(F)P(=O)(O)O)ccc2s1 (stereo partly drawn) [Compound 598, (fluoro(2-(((3S,6S,9aS)-3-(3-(4-(oxetan-3-yloxy)pyridin-3-yl)azetidine-1-carbonyl)-5-oxooctahydro-1H-pyrrolo[1,2-a]azepin-6-yl)carbamoyl)benzo [b]thiophen-5-yl)methyl) phosphonic acid]
5.00 to 6.00	≥ 6.52	O=C(N[C@H]1CCCC[C@H]2CC[C@@H](C(=O)N3C(=O)N(c4cccc5c4OC(F)(F)O5)C(=O)C34CC4)N2C1=O)c1cc2cc(C(F)P(=O)(O)O)ccc2s1 (stereo partly drawn) [Compound 601, ((2-(((3S,6S,10aS)-3-(6-(2,2-difluorobenzo[d][1, 3]dioxol-4-yl)-5,7-dioxo-4,6-diazaspiro[2.4]heptane-4-carbonyl)-5-oxodecahydropyrrolo [1,2-a]azocin-6-yl)carbamoyl)benzo [b]thiophen-5-yl)fluoromethyl) phosphonic acid]
> 7.00	4.52 to 5.52	CC1C(c2cccnc2)CN1C(=O)[C@@H]1CC[C@@H]2CCC[C@H](NC(=O)c3cc4cc(C(F)P(=O)(O)O)ccc4s3)C(=O)N21 (stereo partly drawn) [Compound 602, (fluoro(2-(((3S,6S,9aS)-3-(2-methyl-3-(pyridin-3-yl)azetidine-1-carbonyl)-5-oxooctahydro-1H-pyrrolo[1,2-a]azepin-6-yl)carbamoyl)benzo [b]thiophen-5-yl)methyl) phosphonic acid]
> 7.00	4.52 to 5.52	C[C@@H]1CC[C@H](NC(=O)c2cc3cc(CP(=O)(O)O)ccc3s2)C(=O)N2[C@H](CC[C@H]2C(=O)N2CC(c3cnccc3F)C2)C1 [Compound 603, ((2-(((3S,6S,9R,10aR)-3-(3-(4-fluoropyridin-3-yl)azetidine-1-carbonyl)-9-methyl-5-oxodecahydropyrrolo [1,2-a]azocin-6-yl)carbamoyl)benzo [b]thiophen-5-yl)methyl) phosphonic acid]
6.00 to 7.00	4.52 to 5.52	O=C(N[C@H]1CCC[C@H]2CC[C@@H](C(=O)N3CCC(c4ccncn4)CC3)N2C1=O)c1cc2cc(C(F)P(=O)(O)O)ccc2s1 (stereo partly drawn) [Compound 604, (fluoro(2-(((3S,6S,9aS)-5-oxo-3-(4-(pyrimidin-4-yl)piperidine-1-carbonyl)octahydro-1H-pyrrolo[1,2-a]azepin-6-yl)carbamoyl)benzo [b]thiophen-5-yl)methyl) phosphonic acid]
> 7.00	4.52 to 5.52	O=C(N[C@H]1CCC[C@H]2CC[C@@H](C(=O)N3CC(c4cncnc4O)C3)N2C1=O)c1cc2cc(CP(=O)(O)O)ccc2s1 [Compound 605, ((2-(((3S,6S,9aS)-3-(3-(4-hydroxypyrimidin-5-yl)azetidine-1-carbonyl)-5-oxooctahydro-1H-pyrrolo[1,2-a]azepin-6-yl)carbamoyl)benzo [b]thiophen-5-yl)methyl) phosphonic acid]
> 7.00	4.52 to 5.52	CNc1ccncc1C1CN(C(=O)[C@@H]2CC[C@@H]3CCC[C@H](NC(=O)c4cc5cc(CP(=O)(O)O)ccc5s4)C(=O)N32)C1 [Compound 606, ((2-(((3S,6S,9aS)-3-(3-(4-(methylamino)pyridin-3-yl)azetidine-1-carbonyl)-5-oxooctahydro-1H-pyrrolo[1,2-a]azepin-6-yl)carbamoyl)benzo [b]thiophen-5-yl)methyl) phosphonic acid]
> 7.00	5.52 to 6.52	Cn1ncc(C2CN(C(=O)[C@@H]3CC[C@@H]4CCC[C@H](NC(=O)c5cc6cc(C(F)P(=O)(O)O)ccc6s5)C(=O)N43)C2)c1O (stereo partly drawn) [Compound 607, (fluoro(2-(((3S,6S,9aS)-3-(3-(5-hydroxy-1-methyl-1H-pyrazol-4-yl)azetidine-1-carbonyl)-5-oxooctahydro-1H-pyrrolo[1,2-a]azepin-6-yl)carbamoyl)benzo [b]thiophen-5-yl)methyl) phosphonic acid]
